In brackets after ≈: the same amount, converted by molar mass. Several values for one entry are separate records, joined by “and”; a condition that tells them apart may be missing. Equal entries are not always repeated. Where two headings read alike, the source gives them in different places.
Assays:
[1] = tested on: Human lymphoblast RPMI 8402 cells; assay: MTT-microtiter plate tetrazolinium cytotoxicity assay (MTA); type: cell-based
Text: (§1) The results were plotted and the IC50 then measured.

[2] = tested on: human epidermoid carcinoma KB 3-1 cell line; assay: MTA cytotoxicity assay, epidermoid carcinoma cells; type: cell-based; details: KB 3-1, 96 h
Procedure: as §1
(§2) The coralyne analog 7c was tested for its effectiveness against glioblastoma cells. The assay used was similar to that described above for the RPMI-8402 cell line. The results are shown in table 2 below which compares the effect of Compound 7c against the leukemia cell line (RPMI 8402), epidermal carncinoma (KB3-1) and glioblastoma (SF-268): Table 2

[3] = tested on: glioblastoma cell line SF-268; assay: MTA cytotoxicity assay, glioblastoma cells; type: cell-based; details: for IC50: Homo sapiens, SF-268, 96 h, read-out: Cytotoxicity SF-268
Procedure: as §1, §2

[4] = tested on: yeast cells expressing human topoisomerase I; assay: Yeast cytotoxicity assay, strain expressing human topo I; type: cell-based, S. cerevisiae; details: plates with 1 µM drug (camptothecin 0.5 µM), 3 days at 30°C
Text: (§3) It has been established that yeast can survive when topoisomerase I function is obliterated, and that the topoisomerase I poisons only kill cells having a functional topoisomerase I (Bjornsti et al. Cancer Res. 49:6318-6323 (1989)).
(§4) The topoisomerase I-specific in vivo cytotoxicity assay was adapted from Knab et al. (Knab et al., J. Biol. Chem. 268:22322-22330 (1993)). In this system, various topo I genes cloned into the single copy yeast plasmid vector, YCpGAL1 (Knab et al., J. Biol. Chem. 268:22322-22330 (1993)), are expressed under the control of the GAL1 promoter in the JN2-134 strain of S. cerevisiae (MATa, rad52::LEU2, trp1, ade2-1,his7, ura3-52, isel, top1-1, leu2) (Bjornsti et al., Cancer Res. 49:6318-6323 (1989)). The topo I constructs in the vector are, respectively, the wild-type yeast topo I (YCpGAL-ScTOP1), a non-functional yeast topo I where the active site tyrosine-727 is mutated to a phenylalanine (YCpGAL1-Sctop1Y727F) (Knab et al., J. Biol. Chem. 268:22322-22330 (1993)), and the wild type human topoisomerase I (YCpGAL-hTOP1) (Bjornsti et al., Cancer Res. 49:6318-6323 (1989)). To qualitatively test the cytotoxicity and the topo I specificity of the drugs, yeast cells containing the specific plasmid were serially diluted (5-fold) and were grown in dropout medium supplemented with uracil and 2% galactose In addition, the plates contained: A: Control, no drug in the plate; B: Camptothecin (CPT), 0.5 µM; C: Coralyne, 1 µM; D: Methylenedioxy-dihydro-demethyl-coralyne (MDD-Coralyne), 1 µM, and E: Nitidine, 1 µM. The plates were grown for 3 days at 30°C to assess the lethal effect of the different compounds on the various topoisomerase I enzymes expressed in S. cerevisiae.and the drug being tested.

[5] = tested on: yeast cells expressing functional yeast topoisomerase I; assay: Yeast cytotoxicity assay, strain expressing wild-type yeast topo I; type: cell-based, S. cerevisiae; details: plates with 1 µM drug (camptothecin 0.5 µM), 3 days at 30°C
Text: as §3, §4

[6] = tested on: yeast cells expressing non-functional yeast topoisomerase I; assay: Yeast cytotoxicity assay, strain expressing non-functional yeast topo I; type: cell-based, S. cerevisiae; details: plates with 1 µM drug (camptothecin 0.5 µM), 3 days at 30°C
Text: as §3, §4

human topoisomerase I = molecular target: T1, human topoisomerase I (Homo sapiens, UniProt P11387); assay: Topo I cleavage assay (plasmid YEpG DNA); type: biochemical; details: for Topo I-mediated DNA cleavage (REC, Relative Effective Concentration): concentration relative to camptothecin (CPT) = 1 producing the same cleavage on the plasmid DNA
T1 construct: 15 amino acid vector-derived fusion (pET-11a leader); made in house; host or cells: E. coli BL21(DE3)
T1 sequence (P11387 1-765): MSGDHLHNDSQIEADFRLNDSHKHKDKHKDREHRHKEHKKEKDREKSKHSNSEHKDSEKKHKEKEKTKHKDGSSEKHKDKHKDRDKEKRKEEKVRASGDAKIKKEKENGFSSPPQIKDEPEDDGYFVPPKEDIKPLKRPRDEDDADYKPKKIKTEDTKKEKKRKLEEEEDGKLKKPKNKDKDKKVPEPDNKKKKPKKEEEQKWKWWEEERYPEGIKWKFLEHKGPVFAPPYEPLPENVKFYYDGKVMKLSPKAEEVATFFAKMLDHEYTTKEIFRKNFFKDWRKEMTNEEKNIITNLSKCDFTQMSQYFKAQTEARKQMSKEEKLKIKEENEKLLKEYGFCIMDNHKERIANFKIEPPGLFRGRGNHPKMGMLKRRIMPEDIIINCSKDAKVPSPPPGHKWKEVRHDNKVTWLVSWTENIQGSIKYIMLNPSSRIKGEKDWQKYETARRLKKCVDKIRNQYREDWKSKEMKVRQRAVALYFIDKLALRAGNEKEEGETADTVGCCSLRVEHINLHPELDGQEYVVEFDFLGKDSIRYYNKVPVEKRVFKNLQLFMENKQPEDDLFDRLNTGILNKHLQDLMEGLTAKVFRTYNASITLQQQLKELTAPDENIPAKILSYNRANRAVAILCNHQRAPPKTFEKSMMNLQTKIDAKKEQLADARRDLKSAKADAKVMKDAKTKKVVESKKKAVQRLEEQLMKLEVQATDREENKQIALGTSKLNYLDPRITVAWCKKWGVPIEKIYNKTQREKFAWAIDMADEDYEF
Text: To obtain large quantity of human topoisomerase I, the human topoisomerase I cDNA was cloned into the pET-11a vector, in which transcription of the cDNA is under the control of the inducible T7 promoter (Studier et al., Methods in Enzymol., Vol. 185:60-89, San Diego: Academic Press (1990)). Briefly, a 3.4 kb DNA fragment containing the entire coding sequence of human topoisomerase I and approximately 1 kb of untranslated region downstream of the stop codon was isolated from the plasmid YCpGAL1-hTOP1 (Bjornsti et al., Cancer Res. 49:6318-6323 (1989)) by cutting at the BamHI and EcoRI sites. The vector pET-11a was cut with the same restriction enzymes, dephosphorylated and ligated to the insert in the proper reading-frame downstream of the vector cloning site. The ligation mixture was used to transform E. coli, the correct clone pET1B was isolated (see figure 2A for the map) and its identity confirmed by restriction mapping. Since the translational start in pET is positioned at an upstream NdeI site, the expressed topoisomerase I has a 15 amino acid fusion at its N-terminus. pET1B was then transformed into E. coli BL21(DE3), and, upon induction with 0.4 mM IPTG for 1 hour, the bacterial lysate was analyzed by 10 % SDS-PAGE. Expression was confirmed by Western blotting using rabbit antibodies against human topoisomerase I. Isolation of the expressed protein was done by a simple procedure. Briefly, E. coli cells were lysed by repeated sonic bursts. The sonic extract was made in 1 M NaCl and 6% polyethylene glycol (PEG) to remove nucleic acids. The PEG supernatant was chromatographed directly on a hydroxyapatite column. Expressed human DNA topoisomerase I was eluted at the 0.6 M potassium phosphate step. The eluted enzyme was dialyzed against 50% glycerol, 30 mM potassium phosphate (pH 7.0), 1 mM dithiothreitol (DTT) and 0.1 mM EDTA and stored at -20°C.
(§5) Cleavage assays for the recombinant topoisomerases I and calf thymus topoisomerases I and II were done as described (Liu et al., J. Biol. Chem. 258:15365-15370 (1983)). The plasmid YEpG DNA used for the cleavage assays was prepared and labeled at its 3'-end using the published procedures.

[7] = tested on: calf thymus topoisomerase II; assay: Topo II cleavage assay (plasmid YEpG DNA); type: biochemical; details: concentration relative to VM-26 = 1 producing the same cleavage on the plasmid DNA
Text: The plasmid pET11a and the E. coli strain BL21(DE3) used for enzyme expression were purchased from Novagen. IPTG was purchased from Sigma. The ECL system used for the Western blotting analysis of bacterial lysates was from Amersham (UK). All the restriction enzymes and Vent polymerase were from New England Biolabs. Mammalian topoisomerase II was isolated from calf thymus glands according to the published procedure (Halligan et al., J. Biol. Chem. 260:2475-2482 (1985)). The single copy yeast plasmids YCpGAL1 expressing various topoisomerase I genes in JN2-134 yeast strain were a kind gift of Dr. M-A. Bjornsti (Thomas Jefferson University, Philadelphia, PA). All bacterial and yeast media were from Difco (Detroit, MI), while cell culture media were purchased from Gibco-BRL (Gaithersburg, MD).
as §5

[8] = tested on: camptothecin-resistant CPT-K5 cells; assay: MTT-microtiter plate tetrazolinium cytotoxicity assay (MTA), camptothecin-resistant cells
Procedure: The IC50 of the drugs tested were determined by the MTT-microtiter plate tetrazolinium cytotoxicity assay (MTA) (Mosmann, T., J. Immunol. Methods 65:55-63 (1983); Denizot et al., J. Immunol. Methods 89:271-277 (1986)). Human lymphoblast RPMI 8402 cells and their camptothecin-resistant CPT-K5 cells (Andoh et al., Proc. Natl. Acad. Sci., USA 84:5565-5569 (1987)) were kindly provided by Dr. Toshiwo Andoh (Aichi Cancer Center Research Institute, Nagoya, Japan). […] Cells (2000 cells/well, seeded in […] growth medium) were grown in suspension at 37°C in 5% CO2 and maintained by regular passage in RPMI medium supplemented with 10% heat inactivated fetal bovine serum, L-glutamine (2 mM), penicillin (100 U/ml), and streptomycin (0.1 mg/ml). The cells were exposed continuously for 4 days to different drug concentrations, and assayed at the end of the fourth day. Each concentration and the no drug control were repeated at least twice in 6 replica wells. The results were plotted and the IC50 then measured. The drug sensitive human epidermoid carcinoma KB 3-1 cell line and its vinblastine-selected multidrug-resistant variant KB-V1 cells (Akiyama et al., Genetics 11:117-126 (1985)) were kindly provided by Dr. Michael Gottesmann (National Cancer Institute). They were grown as monolayer cultures at 37°C in 5% CO2 and maintained by regular passage in Dulbecco's minimal essential medium supplemented with 10% heat inactivated fetal bovine serum. KB-V1 cells were maintained in the presence of […] vinblastine.

[9] = Homo sapiens, RPMI 8402, 96 h, read-out: Cytotoxicity IC50 RPMI
[10] = Homo sapiens, CPT-K5, 96 h, read-out: Cytotoxicity IC50 CPT-K5

| Compound | Topo I-mediated DNA cleavage (REC, Relative Effective Concentration) (human topoisomerase I) | Topo II-mediated DNA cleavage (REC, Relative Effective Concentration) [7] | IC50 [1, 9] [µM] | IC50 [8, 10] [µM] | also measured |
| --- | --- | --- | --- | --- | --- |
| COc1cccc2c1C(=O)c1c(O)c3c(c(O)c1C2=O)C[C@@](O)(C(=O)CO)C[C@@H]3O[C@H]1C[C@H](N)[C@H](O)[C@H](C)O1 [doxorubicine] |  |  |  |  | IC50 ([1]; Homo sapiens, RPMI 8402, 96 h, leukemia cell line, Table 2, read-out: Cytotoxicity RPMI 8402): 0.8 µg/mL; IC50 ([2]; epidermal carcinoma, Table 2, read-out: Cytotoxicity KB3-1): 0.1 µg/mL (≈ 0.184 µM); IC50 ([3]; glioblastoma, Table 2): 0.8 µg/mL (≈ 1.47 µM) |
| Methylenedioxy-dihydro-demethyl-coralyne [MDD-coralyne] |  |  |  |  | cytotoxicity against yeast cells expressing human topoisomerase I (in words) [4]: highly cytotoxic; cytotoxicity against yeast cells expressing functional yeast topoisomerase I (in words) [5]: not cytotoxic; cytotoxicity against yeast cells expressing non-functional yeast topoisomerase I (in words) [6]: not cytotoxic |
| COc1cc2cc3[n+](c(C)c2cc1OC)CCc1c-3ccc2c1OCO2 [Compound 7c, 5,6-Dihydro-8-methyl-3,4-methylenedioxy-10,11-dimethoxydibenzo[a,g]quinolizinium acetosulfate] | 10 | 30 | 0.6 | 6.1 | IC50 ([1]; Homo sapiens, RPMI 8402, 96 h, read-out: Cytotoxicity RPMI 8402): 0.3 µg/mL; IC50 ([2]; read-out: Cytotoxicity KB3-1): 0.06 µg/mL; cytotoxicity against glioblastoma cells (in words) [3]: exceptional cytotoxicity; IC50 [3]: 0.008 µg/mL |
| COc1cc2cc3c4ccc(OC)c(OC)c4cc[n+]3cc2cc1OC.[Cl-] [Compound 10b, 3,4,10,11-Tetramethoxydibenzo[a,g]quinolizinium chloride] | >1000 | 100 | 2.6 | 5.2 |  |
| COc1cc2cc3[n+](cc2cc1OC)CCc1c-3ccc2c1OCO2.[Cl-] [Compound 8c, 5,6-Dihydro-3,4-methylenedioxy-10,11-dimethoxydibenzo[a,g]quinolizinium chloride] | 1 | 50 | 8.1 | 27 | EC (total cleavage) (human topoisomerase I; read-out: concentration giving total cleavage of DNA in the presence of topoisomerase I): 0.27 µM and 0.1 µg/mL |
| Cc1nc(-c2ccc(O)c(O)c2)cc2cc(O)c(O)cc12 [Compound 13, 6,7-Dihydroxy-1-methyl-3-(3,4-dihydroxyphenyl)isoquinoline] | >1000 | >1000 | 7.1 | 99 | cytotoxicity against RPMI 8402 cells (in words) [1]: appreciable cytotoxicity |
| 6,7-Dimethoxy-1, 2-dimethyl-3-(3, 4-dimethoxyphenyl)isoquinolinium methosulfate [Compound 14a] | >1000 | >1000 |  |  | IC50 ([1]; rpmi 8402 cells, 96 h): 43 µM; IC50 ([8]; cpt-k5 cells, 96 h): 39 µM |
| 6,7-Dimethoxy-1,2-dimethyl-3-(3, 4-methylenedioxyphenyl)isoquinolinium methosulfate [Compound 14b] | 1000 | 1000 |  |  | cytotoxicity against RPMI 8402 cells (in words) [1]: appreciable cytotoxicity; IC50 ([1]; rpmi 8402 cells, 96 h): 6.7 µM; IC50 ([8]; cpt-k5 cells, 96 h): 11 µM |

— patent EP0888346B1, “CORALYNE ANALOGS AS TOPOISOMERASE INHIBITORS” (RUTGERS, THE STATE UNIVERSITY OF NEW JERSEY, priority 1996, dated 1997)
